Like-named read-outs stand apart in the source and are kept apart here.
How the values were obtained:
CYP2C8 = CYP2C8 (Homo sapiens, UniProt P10632); test: Metabolism by P450 CYP2C8; type: in vitro ADME
Text: Two enzymes primarily responsible for metabolism of paclitaxel are P450 CYP3A4 and CYP2C8. Some P-gp inhibitors are also metabolized by P450 CYP 3A4, leading to inhibition of paclitaxel metabolism. This may contribute to PK interactions with paclitaxel.

MDA/LCC6^MDR1 = test: Reversal of MDR in P-gp-expressing cell line; type: cell-based, human; conditions: for EC50: Homo sapiens, MDA/LCC6^MDR1 breast
Experimental: (§1) Cell proliferation IC50s and MDR reversal EC50s were determined from 3-day dose-response curves carried out in triplicate in 96-well plates essentially as described by Monks et al. (J. Natl. Cancer Inst., 83:757-66, 1991). Cells were plated in standard growth medium at 2.5 or 5.0×10^4 per well (CCRF-CEM and CEM/VLB1000 respectively) or 5×10^3 per well (all other cell lines) in a final volume of 100 μl. After a 2 h incubation for non-adherent cells and overnight incubation for adherent cells, the initial cell density was determined by fluorescence readout of Alamar Blue metabolism. The compound of Formula 2, cytotoxic agents, or compound vehicles were added to duplicate plates and the incubation was continued for an additional 72 h. Final cell density was determined with Alamar Blue. In some experiments, a standard endpoint assay was used without analysis of initial cell density with Alamar Blue. Similar results were obtained with the two assays. EC50s were derived by nonlinear regression analysis assuming a sigmoidal dose-response using GraphPad Prism Software (San Diego, Calif.). Proliferation assays capable of measuring both cytostatic and cytotoxic responses were carried out as described herein with 15 non-transformed and transformed cell lines, including primary fibroblasts, non-transformed smooth muscle, leukemia, breast, colon, ovarian and uterine carcinoma cells (±P-gp expression). Although the compound of Formula 2 reversed P-gp-mediated MDR in the low nanomolar concentration range, the compound was non-cytotoxic by itself at doses up to 100 μM in all cell lines. […] IC50s for non-specific cytotoxicity were similar in matched cell lines plus and minus P-gp expression. […] If it were, some consistent degree of resistance would be expected in P-gp expressing cells.

MDA/LCC6 cells = test: Effect on paclitaxel IC50 in non-P-gp-expressing cells; type: cell-based, human; conditions: breast carcinoma cells that do not express P-gp, FIG. 1
Experimental: The compound of Formula 2 was able to reverse resistance to all classes of P-gp substrates in a wide variety of tumor cell types with EC50s in the low nM range (Table 2). Similar results were obtained with etoposide in several models. Complete reversal of MDR was typically seen with Formula 2 doses between 0.25 and 1.0 μM. Examples with cells expressing extremely high levels of P-gp as a result of drug selection (CEM/VLB1000), moderate levels of P-gp from gene transduction (MDA/LCC6 ^MDR1), and low (intrinsic) levels of P-gp (HCT-15) are illustrated in Table 2. The compound of Formula 2 had no effect on doxorubicin or paclitaxel IC50s in non-P-gp-expressing CCRF-CEM and MDA/LCC6 cells, respectively (FIG. 1, for MDA/LCC6 cells).
Cell proliferation IC50s and MDR reversal EC50s were determined from 3-day dose-response curves carried out in triplicate in 96-well plates essentially as described by Monks et al. (J. Natl. Cancer Inst., 83:757-66, 1991). Cells were plated in standard growth medium at 2.5 or 5.0×10^4 per well (CCRF-CEM and CEM/VLB1000 respectively) or 5×10^3 per well (all other cell lines) in a final volume of 100 μl. After a 2 h incubation for non-adherent cells and overnight incubation for adherent cells, the initial cell density was determined by fluorescence readout of Alamar Blue metabolism. […] Final cell density was determined with Alamar Blue. […]

tumor-bearing mice = conditions: 20 mg/kg paclitaxel with the compound of Formula 2
HCT-15 = test: Cell proliferation assay; type: cell-based; conditions: Homo sapiens; Colorectal carcinoma HCT-15, P-gp Pos; read-out: Formula 2 compound IC50 (inhibition of growth)
Experimental: as §1

CEM = test: Cell proliferation assay; type: cell-based; conditions: Homo sapiens, CCRF-CEM; Lymphoma CEM, P-gp Neg; read-out: Formula 2 compound IC50 (inhibition of growth)
Experimental: as §1

MCF-7 = test: Cell proliferation assay; type: cell-based; conditions: Homo sapiens, MCF7; Breast carcinoma MCF-7, P-gp Neg; read-out: Formula 2 compound IC50 (inhibition of growth)
Experimental: as §1

CCD-986SK = test: Cell proliferation assay; type: cell-based; conditions: Homo sapiens; Primary fibroblast CCD-986SK; read-out: Formula 2 compound IC50 (inhibition of growth)
Experimental: as §1

SW480 = test: Cell proliferation assay; type: cell-based; conditions: Homo sapiens; Colorectal carcinoma SW480, P-gp Pos; read-out: Formula 2 compound IC50 (inhibition of growth)
Experimental: as §1

Cell proliferation assay = type: cell-based; conditions: human, MDA/LCC6^MDR1 breast carcinoma cells (P-gp positive); Breast carcinoma MDA/LCC6^MDR1, P-gp Pos; read-out: Formula 2 compound IC50 (inhibition of growth)
Experimental: as §1

MDA/LCC6^MDR1 tumors = test: In vivo antitumor efficacy, orthotopic MDA/LCC6^MDR1 tumors; set-up: species or system SCID/RAG2 mice
Experimental: Anti-tumor efficacy experiments with orthotopic MDA/LCC6 and MDA/LCC6^MDR1 tumors were conducted in female SCID/RAG2 mice. Ascites propagated cells (2×10^6 in 50 μl) were injected into mammary fat pads bilaterally on day 0 before randomization into groups of 5 mice per group. Paclitaxel (12 mg/kg/dose) was administered QD i.v. (tail vein) in 200 μl saline/Cremophor/ethanol (8/1/1 by volume) on days 5, 12, 19, and 26. The compound of Formula 2-free base (30 mg/kg/dose) was administered BID p.o. by gavage in 100 μl PEG 400/Tween 20 (9/1 by volume) on days 4-6, 11-13, 18-20, and 25-27. Mean body weights were recorded at least every other day. Tumor weight was monitored approximately every other day by caliper measurements and calculated according to the formula (Tumor weight =(length×width^2)÷2). This conversion formula was verified by comparing the calculation derived tumor weights to excised and weighed tumors. Animals bearing ulcerated tumors or where tumor weight exceeded 10% of the animal's body weight were terminated. The weights of the bilateral tumors were averaged for each mouse and mean tumor weights for each treatment group±standard error of the mean were calculated. Statistical analysis was carried out by Mann-Whitney test using GraphPad Prism software (San Diego, Calif.).
The compound of Formula 2 was administered the afternoon before, 2 hours before and 6 hours after each paclitaxel dose. The ability of orally administered Formula 2 compound to reverse MDR in solid tumors in vivo was assessed with the MDA/LCC6^MDR1 model. Because the compound of Formula 2 produced no effect on paditaxel blood levels, focus on up-front therapy (for naive animals) or minimal residual disease models was maintained, as opposed to established tumors. MDA/LCC6^MDR1 cells that express P-gp were resistant to paclitaxel treatment in vitro and this resistance was reversed by the compound of Formula 2 (FIG. 1). […] Similar results were obtained in three independent experiments with two different strains of immunocompromised mice (SCID/RAG-2 and athymic). […]

Sequence of CYP2C8 (P10632 whole entry): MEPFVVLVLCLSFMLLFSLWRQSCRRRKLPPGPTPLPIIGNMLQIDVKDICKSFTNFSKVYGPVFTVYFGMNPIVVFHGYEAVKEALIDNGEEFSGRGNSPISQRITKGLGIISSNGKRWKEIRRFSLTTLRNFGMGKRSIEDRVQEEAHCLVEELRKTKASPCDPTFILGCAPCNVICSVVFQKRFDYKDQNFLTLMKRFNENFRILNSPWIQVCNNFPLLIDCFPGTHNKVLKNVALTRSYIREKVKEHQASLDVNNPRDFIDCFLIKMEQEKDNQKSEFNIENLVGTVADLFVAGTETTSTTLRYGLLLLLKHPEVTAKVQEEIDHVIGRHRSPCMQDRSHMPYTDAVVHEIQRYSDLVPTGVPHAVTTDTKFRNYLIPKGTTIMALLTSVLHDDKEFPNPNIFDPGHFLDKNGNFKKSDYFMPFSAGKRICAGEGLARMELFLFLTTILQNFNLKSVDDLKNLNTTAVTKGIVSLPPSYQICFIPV

## CCOC/C=C/c1ccc(-c2nc(-c3ccc(NC(C)C)cc3)c(-c3ccc(NC(C)C)cc3)[nH]2)cc1 [Formula 2 compound]
CYP2C8
  Metabolism by P450 CYP2C8: not metabolized
MDA/LCC6^MDR1; FIG. 1
  Resistance to paclitaxel treatment in vitro: reversed
MDA/LCC6^MDR1; read-out: Formula 2 compound EC50, reversal of Doxorubicin resistance
  EC50: 13 nM
MDA/LCC6^MDR1; read-out: Formula 2 compound EC50, reversal of Paclitaxel resistance
  EC50: 9 nM
MDA/LCC6 cells
  In vitro anti-tumor activity of paclitaxel: did not enhance
tumor-bearing mice
  Tumor formation: completely prevented tumor formation at several injection sites
HCT-15
  IC50: 6 µM
CEM
  IC50: 38 µM
MCF-7
  IC50: 30 µM
CCD-986SK
  IC50: > 100 µM
SW480
  IC50: > 100 µM
Cell proliferation assay
  IC50 at 72 h: > 100 µM
MDA/LCC6^MDR1 tumors; Formula 2 compound and paclitaxel combined, persisted at least two weeks after last paclitaxel dose
  In vivo tumor growth: statistically significant inhibition of tumor growth
MDA/LCC6^MDR1 tumors; single agent alone, paclitaxel 12 mg/kg i.v., Formula 2 free base 30 mg/kg p.o.
  In vivo tumor growth compared to the vehicle control: no significant effect
